From patent publication US5591741A, “Fungicidal spiroheterocyclic derivatives” (American Cyanamid Company, priority 1993, dated 1997) come the findings set out here.

The subject of one assay is Venturia inaequalis. Kind of assay: Activity against apple scab in-vitro (VII). The class given is cell-based. The conditions noted are these: 10 ppm, 10 days, 20° C., mycelial growth. As to the method:
(j) Activity against apple scab in-vitro (Venturia inaequalis: VII) This test measures the in-vitro activity of compounds against V. inaequalis that causes apple scab. The test compound in acetone is added into 4 ml aliquots of half strength Potato Dextrose Broth dispensed in 25-compartment petri dishes to give final concentrations of 10 ppm. The fungal inoculum consists of mycelial fragments and spores of V. inaequalis grown on malt agar and added to the broth to provide 5×10^4 propagules/ml broth. Petri dishes are incubated at 20° C. for 10 days until the assessment of mycelial growth. The extent of disease control in all the above tests is expressed as a rating compared with either an untreated control or a diluent-sprayed-control, according to the criteria: […]

The test system of another assay is Pyricularia oryzae. The class given is in vivo. The conditions noted are these: rice seedlings, direct therapeutic foliar spray, 600 ppm, 4-5 days.
Another assay relates to Phytophthora infestans. The class given is in vivo. The conditions noted are these: tomato, direct protectant foliar spray.
Another assay deals with Alternaria solani. Kind of assay: Activity against tomato early blight (AS). The conditions noted are these: Table VI; tomato seedlings, contact prophylactic foliar spray, 4 days. The class given is in vivo. How it is done:
b) Activity against tomato early blight (Alternaria solani; AS) This test measures the contact prophylactic activity of test compounds applied as a foliar spray. Tomato seedlings (cv Outdoor Girl) are grown to the stage at which the second true leaf is expanded. The plants are treated using an automated sprayline as described under (a). Test compounds are applied as solutions or suspensions in a mixture of acetone and water (50:50 v/v) containing 0.04% surfactant ("TWEEN 20"--Trade Mark). After drying the plants are kept for 24 hours in a glasshouse at 20° C. and 40% R.H., followed by inoculation of the leaf upper surfaces with a suspension of A. solani conidia containing 10^4 spores/ml. For 4 days after inoculation plants are kept moist in a humidity compartment at 21° C. Disease is assessed 4 days after inoculation, based on the percentage of leaf surface area covered by lesions when compared with control plants. The extent of disease control in all the above tests is expressed as a rating compared with either an untreated control or a diluent-sprayed-control, according to the criteria: […]

The test system of the next assay is Plasmopara viticola. Kind of assay: Antisporulant activity against vine downy mildew (PVA). The class given is in vivo. The conditions noted are these: vine leaves, antisporulant foliar spray, 600 ppm, 750 l/ha. How it is done:
(a) Antisporulant activity against vine downy mildew (Plasmopara viticola; PVA) The test is a direct antisporulant one using a foliar spray. The lower surfaces of leaves of whole vine plants (cv Cabernet Sauvignon), approximately 8 cm high, are inoculated by spraying with an aqueous suspension containing 5×10^4 zoosporangia/ml. The inoculated plants are kept for 24 hours at 21° C. in a high humidity compartment, then 24 hours at glasshouse ambient temperature and humidity. Infected leaves are sprayed on their lower surfaces with a solution of active material in 1:1 water/acetone containing 0.04% "TWEEN 20" (Trade Mark; a polyoxyethylene sorbitan ester surfactant). Plants are treated using an automated sprayline with an atomising nozzle. The concentration of the compound is 600 ppm, and the spray volume is 750 l/ha. After spraying, the plants are returned to normal glasshouse conditions for 96 hours and are then transferred to the high humidity compartment for 24 hours to induce sporulation. Assessment is based on the percentage of the leaf area covered by sporulation compared with that on control leaves. The extent of disease control in all the above tests is expressed as a rating compared with either an untreated control or a diluent-sprayed-control, according to the criteria: […]

Another assay deals with Rhizoctonia solani. The assay is described as follows: Activity against Rhizoctonia in-vitro (RSI). It counts as cell-based. The conditions noted are these: 10 ppm, 10 days, 20° C., mycelial growth. How it is done: (i) Activity against Rhizoctonia in-vitro (Rhizoctonia solani: RSI) This test measures the in-vitro activity of compounds against R. solani that causes stem and root rots. The test compound in acetone is added into 4 ml aliquots of half strength Potato Dextrose Broth dispensed in 25-compartment petri dishes to give final concentrations of 10 ppm. The fungal inoculum consists of mycelial fragments of R. solani growth in half strength PDB in shaken culture flasks and added to the broth to provide 5×10^4 fragments/ml broth. Petri dishes are incubated at 20° C. for 10 days until the assessment of mycelial growth. The extent of disease control in all the above tests is expressed as a rating compared with either an untreated control or a diluent-sprayed-control, according to the criteria: […]

The subject of assay [1] is Pseudocercosporella herpotrichoides. The assay is described as follows: Activity against wheat eyespot in-vitro (PHI). The class given is cell-based. The conditions noted are these: 10 ppm, 10 days, 20° C., mycelial growth. How it is done: (h) Activity against wheat eyespot in-vitro (Pseudocercosporella herpotrichoides; pHI) This test measures the in vitro activity of compounds against the fungus causing wheat eyespot. The test compound is dissolved or suspended in acetone and is added into 4 ml aliquots of half strength Potato Dextrose Broth (PDB) dispended in 25-compartment petri dishes to give a final concentration of 10ppm. The fungal inoculum consists of mycelial fragments of P. herpotrichoides grown in half strength PDB in shaken flasks and added to the broth to provide 5×10^4 fragments/ml broth. Petri dishes are incubated at 20° C. for 10 days until the assessment of mycelial growth. The extent of disease control in all the above tests is expressed as a rating compared with either an untreated control or a diluent-sprayed-control, according to the criteria: […]

Another assay has as its system Leptosphaeria nodorum. The assay is described as follows: Activity against wheat leafspot (LN). The class given is in vivo. The conditions noted are these: direct therapeutic foliar spray, 600 ppm, 6-8 days. How it is done:
(d) Activity against wheat leafspot (Leptosphaeria nodorum; LN.) The test is a direct therapeutic foliar spray. Leaves of wheat plants (cv Norman), at the single leaf stage, are inoculated by spraying with an aqueous suspension containing 1.5×10^6 conidia/ml. The inoculated plants are kept for 24 hours in a high humidity compartment prior to treatment. The plants are sprayed with a solution of the test compound at a dosage of 600 ppm using an automated sprayline as described under (a). After drying, the plants are kept for 6-8 days at 22° C. and moderate humidity (70%). Assessment is based on the density of lesions per leaf compared with that on leaves of control plants. The extent of disease control in all the above tests is expressed as a rating compared with either an untreated control or a diluent-sprayed-control, according to the criteria: […]

For assay [2], the system named is Erysiphe graminis f.sp. hordei. Kind of assay: Activity against barley powdery mildew, direct therapeutic (EGT). The class given is in vivo. The conditions noted are these: direct therapeutic foliar spray, 600 ppm, up to 7 days. How it is done: (e) Activity against barley powdery mildew (Erysiphe graminis f.sp. hordei; EGT) The test is a direct therapeutic foliar spray. Leaves of barley seedlings, (cv. Golden Promise) at the single leaf stage are inoculated by dusting with mildew conidia one day prior to treatment with the test compound. The inoculated plants are kept overnight at glasshouse ambient temperature (18° C.) and humidity (40%) prior to treatment. The plants are sprayed with the test compound at a dosage of 600 ppm using an automated sprayline as described under (a). After drying, plants are returned to a compartment at 18° C. and 40% humidity for up to 7 days. Assessment is based on the percentage of leaf area covered by sporulation compared with that on leaves of control plants. The extent of disease control in all the above tests is expressed as a rating compared with either an untreated control or a diluent-sprayed-control, according to the criteria: […]

The test system of another assay is Botrytis cinerea. The assay is described as follows: Direct protectant activity against broad bean grey mould (BCB). It counts as in vivo. The conditions noted are these: direct protectant foliar spray, 600 ppm, 4 days. As to the method: (c) Direct protectant activity against broad bean grey mould (Botrytis cinerea; BCB) The test is a direct protectant foliar spray. The upper surfaces of leaves of broad bean plants with two leaf pairs (cv The Sutton) are sprayed with the test compound at a dosage of 600 ppm using an automated sprayline as described under (a). 24 hours after spraying the leaves are inoculated with an aqueous suspension containing 10^6 conidia/ml. For 4 days after inoculation plants are kept in a high humidity compartment at 22° C. Disease is assessed 4 days after inoculation, based on the percentage of leaf surface area covered by lesions. The extent of disease control in all the above tests is expressed as a rating compared with either an untreated control or a diluent-sprayed-control, according to the criteria: […]

Assay [3] deals with Erysiphe graminis f.sp. hordei. Kind of assay: Direct protectant activity against barley powdery mildew (EGP). The conditions noted are these: direct protectant foliar spray, 8 days. The class given is in vivo. As to the method: (f) Direct protectant activity against barley powdery mildew (Erysiphe graminis f.sp. hordei; EGP) The test is a direct protectant foliar spray. Leaves of barley seedlings (cv Golden Promise) at the single leaf stage are sprayed with the test compound as described under (a). After drying, the plants are kept for 24 hours in a glasshouse at 18° C. and 40% R.H. Then the plants are inoculated by dusting with mildew conidia and kept at 18° C. and 40% R.H. for 8 days. Assessment is based on the percentage of leaf area covered by sporulation compared with that on leaves of control plants. The extent of disease control in all the above tests is expressed as a rating compared with either an untreated control or a diluent-sprayed-control, according to the criteria: […]

As to `CC(C)(C)C1CCC2(CC1)CC(NCc1ccc(Cl)cc1)CO2` (centres unmarked) [Compound 1], in the assay with Venturia inaequalis, the “disease control rating VII” value is 0 (less than 50% disease control). For the same molecule, the “disease control rating PO” value with Pyricularia oryzae is reported as 0 (less than 50% disease control). The “disease control rating PIP” value in the assay with Phytophthora infestans is on record as 0 (less than 50% disease control). The “disease control rating AS” value with Alternaria solani was 0 (less than 50% disease control). Also, the “disease control rating PVA” value with Plasmopara viticola is 0 (less than 50% disease control). The “disease control rating RSI” value with Rhizoctonia solani was 0 (less than 50% disease control). Also, the “disease control rating PHI” value in assay [1] is 1 (about 50-80% disease control). In the assay with Leptosphaeria nodorum, the “disease control rating LN” value is 0 (less than 50% disease control). For the same molecule, the “disease control rating EGT” value in assay [2] is 2 (greater than 80% disease control). Moreover, the “disease control rating BCB” value in the assay with Botrytis cinerea is reported as 0 (less than 50% disease control).

On to `CCCCCCNC1COC2(CCC(C(C)(C)C)CC2)C1` (centres unmarked) [Compound 2], for which, in the assay with Venturia inaequalis, the “disease control rating VII” value is 0 (less than 50% disease control). For the same molecule, the “disease control rating PO” value in the assay on Pyricularia oryzae was 0 (less than 50% disease control). For the same molecule, in the assay on Phytophthora infestans, the “disease control rating PIP” value is 0 (less than 50% disease control). The “disease control rating AS” value in the assay on Alternaria solani is 0 (less than 50% disease control). Further, in the assay on Plasmopara viticola, the “disease control rating PVA” value is given as 0 (less than 50% disease control). Also, the “disease control rating RSI” value in the assay with Rhizoctonia solani is listed as 1 (about 50-80% disease control). The “disease control rating PHI” value in assay [1] is reported as 1 (about 50-80% disease control). Further, in the assay with Leptosphaeria nodorum, the “disease control rating LN” value was 0 (less than 50% disease control). In addition, the “disease control rating EGT” value in [2] is listed as 2 (greater than 80% disease control). In addition, in the assay on Botrytis cinerea, the “disease control rating BCB” value is 0 (less than 50% disease control).

For the molecule `CC1CN(C2COC3(CCC(C(C)(C)C)CC3)C2)CC(C)O1` (centres unmarked) [Compound 3], the “disease control rating VII” value in the assay with Venturia inaequalis is given as 2 (greater than 80% disease control). In addition, the “disease control rating PO” value in the assay on Pyricularia oryzae is reported as 0 (less than 50% disease control). For the same molecule, the “disease control rating PIP” value in the assay with Phytophthora infestans is given as 0 (less than 50% disease control). Also, the “disease control rating AS” value in the assay on Alternaria solani is on record as 0 (less than 50% disease control). Besides, the “disease control rating PVA” value in the assay with Plasmopara viticola was 0 (less than 50% disease control). The “disease control rating RSI” value in the assay on Rhizoctonia solani is listed as 0 (less than 50% disease control). Besides, the “disease control rating PHI” value in assay [1] is 2 (greater than 80% disease control). Besides, the “disease control rating LN” value in the assay with Leptosphaeria nodorum is listed as 0 (less than 50% disease control). In addition, the “disease control rating EGT” value in assay [2] is listed as 1 (about 50-80% disease control). For the same molecule, in the assay on Botrytis cinerea, the “disease control rating BCB” value is listed as 0 (less than 50% disease control).

`CC1CCN(C2COC3(CCC(C(C)(C)CC(C)(C)C)CC3)C2)CC1` (centres unmarked) [Compound 135]: the “disease control rating VII” value in the assay on Venturia inaequalis is recorded as 1 (about 50-80% disease control). Moreover, in the assay on Pyricularia oryzae, the “disease control rating PO” value is 0 (less than 50% disease control). Also, the “disease control rating AS” value with Alternaria solani was 0 (less than 50% disease control). For the same molecule, the “disease control rating EGP” value in assay [3] was 2 (greater than 80% disease control). Also, in the assay with Plasmopara viticola, the “disease control rating PVA” value is listed as 0 (less than 50% disease control). Besides, the “disease control rating RSI” value in the assay on Rhizoctonia solani is 2 (greater than 80% disease control). In [1], the “disease control rating PHI” value is 2 (greater than 80% disease control). In the assay with Leptosphaeria nodorum, the “disease control rating LN” value is 1 (about 50-80% disease control). For the same molecule, in assay [2], the “disease control rating EGT” value is recorded as 2 (greater than 80% disease control). Also, the “disease control rating BCB” value in the assay with Botrytis cinerea is 0 (less than 50% disease control).

Turning to `CC1CC(C)CN(C2COC3(CCC(C(C)(C)CC(C)(C)C)CC3)C2)C1` (centres unmarked) [Compound 136], the “disease control rating VII” value with Venturia inaequalis is 0 (less than 50% disease control). Also, the “disease control rating PO” value in the assay on Pyricularia oryzae is given as 0 (less than 50% disease control). Further, in the assay with Alternaria solani, the “disease control rating AS” value is given as 0 (less than 50% disease control). Also, the “disease control rating EGP” value in assay [3] is listed as 2 (greater than 80% disease control). In the assay with Plasmopara viticola, the “disease control rating PVA” value was 0 (less than 50% disease control). The “disease control rating RSI” value in the assay on Rhizoctonia solani was 2 (greater than 80% disease control). In addition, the “disease control rating PHI” value in assay [1] was 2 (greater than 80% disease control). For the same molecule, the “disease control rating LN” value in the assay with Leptosphaeria nodorum was 0 (less than 50% disease control). Moreover, the “disease control rating EGT” value in [2] is 2 (greater than 80% disease control). In addition, in the assay on Botrytis cinerea, the “disease control rating BCB” value is listed as 0 (less than 50% disease control).
